Measurements reported in ChEMBL document CHEMBL3244408, “Synthesis and analgetic activity of some benzomorphan analogues” (1978).

Test system: Mus musculus
Assay: Analgetic activity in sc dosed albino DD mouse by tail pressure stimuli method
Type: functional

Structure (SMILES)	ED50 [mg/kg]
Br.CN1CCC2Cc3ccc(O)cc3C(C2)C1 (stereo unspecified)	38.8
Br.CN1CCCC2(C)CC1Cc1ccc(O)cc12 (stereo unspecified)	4.1
COc1ccc2c3c1O[C@H]1[C@@H](O)C=C[C@H]4[C@@H](C2)N(C)CC[C@@]341.COc1ccc2c3c1O[C@H]1[C@@H](O)C=C[C@H]4[C@@H](C2)N(C)CC[C@@]341.O.O=P(O)(O)O.O=P(O)(O)O [CODEINE PHOSPHATE]	9.2
Br.C[C@@H]1C2Cc3ccc(O)cc3C1(C)CCN(C)C2 (stereo partly specified)	1
CN1CC[C@]23c4c5ccc(O)c4O[C@H]2[C@@H](O)C=C[C@H]3[C@H]1C5.Cl [MORPHINE HYDROCHLORIDE]	1.2
CN1CCC2Cc3ccc(O)cc3C1C2 (stereo unspecified)	17.2
CC1NCC2Cc3ccc(O)cc3C1C2 (stereo unspecified)	4.5
Br.CN1CC2Cc3ccc(O)cc3C(C)(C2)C1 (stereo unspecified)	8.4
Br.CN1CC2CC1Cc1ccc(O)cc12 (stereo unspecified)	43
CN1CCCC2Cc3ccc(O)cc3C1C2.Cl.O (stereo unspecified)	15
CC(O)C(=O)O.CN1CC2Cc3ccc(O)cc3C1C2 (stereo unspecified)	29.1
